# Source: the supplement of paper PMC10307832
# Legend:
# Experiment in all cases: relative viability (nuclei count vs DMSO), 5 days (fraction); higher = more cells survive
# 201T = tested on: 201T
# Outline: (§1)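 Lung cancer cell lines in 1536-well plates got either a single drug or a fixed anchor-drug dose together with five library-drug doses (not always all listed) in √10 steps, by pin tool, on the day after seeding. Nuclei were counted after 5 days, and relative viability is the treated-to-vehicle ratio of nuclei counts. Values are medians of duplicate plates.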
# ABC-1 = tested on: ABC-1
# Outline: as §1
# BEN = tested on: BEN
# Outline: as §1
# HCC-366 = tested on: HCC-366
# Outline: as §1
# HCC-44 = tested on: HCC-44
# Outline: as §1
# HCC-78 = tested on: HCC-78
# Outline: as §1
# LOU-NH91 = tested on: LOU-NH91
# Outline: as §1
# NCI-H1355 = tested on: NCI-H1355
# Outline: as §1
# NCI-H1650 = tested on: NCI-H1650
# Outline: as §1
# NCI-H1666 = tested on: NCI-H1666
# Outline: as §1
# NCI-H1734 = tested on: NCI-H1734
# Outline: as §1
# NCI-H1755 = tested on: NCI-H1755
# Outline: as §1
# NCI-H2009 = tested on: NCI-H2009
# Outline: as §1
# NCI-H2228 = tested on: NCI-H2228
# Outline: as §1
# NCI-H2347 = tested on: NCI-H2347
# Outline: as §1
# NCI-H2405 = tested on: NCI-H2405
# Outline: as §1
# NCI-H520 = tested on: NCI-H520
# Outline: as §1
# NCI-H727 = tested on: NCI-H727
# Outline: as §1
# NCI-H838 = tested on: NCI-H838
# Outline: as §1
# SW 1573 = tested on: SW 1573
# Outline: as §1
# UMC-11 = tested on: UMC-11
# Outline: as §1
compound,measurement,setting,value
O=c1[nH]c2ccccc2n1C1CCN(CCCC(c2ccc(F)cc2)c2ccc(F)cc2)CC1 [Pimozide] + CC(C)C[C@H](NC(=O)[C@H](Cc1ccccc1)NC(=O)c1cnccn1)B(O)O [Bortezomib] (partner 0.002 µM),relative viability,201T; first compound 0.08 µM,1.07
same,relative viability,201T; first compound 0.253 µM,1.05
same,relative viability,201T; first compound 0.8 µM,1.02
same,relative viability,201T; first compound 2.53 µM,1.08
same,relative viability,201T; first compound 8 µM,1.01
same,relative viability,ABC-1; first compound 0.08 µM,0.289
same,relative viability,ABC-1; first compound 0.253 µM,0.284
same,relative viability,ABC-1; first compound 0.8 µM,0.34
same,relative viability,ABC-1; first compound 2.53 µM,0.227
same,relative viability,ABC-1; first compound 8 µM,0.26
same,relative viability,BEN; first compound 0.08 µM,0.678
same,relative viability,BEN; first compound 0.253 µM,0.81
same,relative viability,BEN; first compound 0.8 µM,0.788
same,relative viability,BEN; first compound 2.53 µM,0.867
same,relative viability,BEN; first compound 8 µM,0.976
same,relative viability,HCC-366; first compound 0.08 µM,1.01
same,relative viability,HCC-366; first compound 0.253 µM,0.999
same,relative viability,HCC-366; first compound 0.8 µM,0.985
same,relative viability,HCC-366; first compound 2.53 µM,1.03
same,relative viability,HCC-366; first compound 8 µM,1.01
same,relative viability,HCC-44; first compound 0.08 µM,0.874
same,relative viability,HCC-44; first compound 0.253 µM,0.788
same,relative viability,HCC-44; first compound 0.8 µM,0.856
same,relative viability,HCC-44; first compound 2.53 µM,0.975
same,relative viability,HCC-44; first compound 8 µM,0.877
same,relative viability,HCC-78; first compound 0.08 µM,0.408
same,relative viability,HCC-78; first compound 0.253 µM,0.417
same,relative viability,HCC-78; first compound 0.8 µM,0.409
same,relative viability,HCC-78; first compound 2.53 µM,0.443
same,relative viability,HCC-78; first compound 8 µM,0.336
same,relative viability,LOU-NH91; first compound 0.08 µM,0.498
same,relative viability,LOU-NH91; first compound 0.253 µM,0.528
same,relative viability,LOU-NH91; first compound 0.8 µM,0.529
same,relative viability,LOU-NH91; first compound 2.53 µM,0.504
same,relative viability,LOU-NH91; first compound 8 µM,0.479
same,relative viability,NCI-H1355; first compound 0.08 µM,1.18
same,relative viability,NCI-H1355; first compound 0.253 µM,1.2
same,relative viability,NCI-H1355; first compound 0.8 µM,1.05
same,relative viability,NCI-H1355; first compound 2.53 µM,1.19
same,relative viability,NCI-H1355; first compound 8 µM,1.19
same,relative viability,NCI-H1650; first compound 0.08 µM,0.23
same,relative viability,NCI-H1650; first compound 0.253 µM,0.204
same,relative viability,NCI-H1650; first compound 0.8 µM,0.188
same,relative viability,NCI-H1650; first compound 2.53 µM,0.177
same,relative viability,NCI-H1650; first compound 8 µM,0.178
same,relative viability,NCI-H1666; first compound 0.08 µM,0.823
same,relative viability,NCI-H1666; first compound 0.253 µM,0.744
same,relative viability,NCI-H1666; first compound 0.8 µM,0.761
same,relative viability,NCI-H1666; first compound 2.53 µM,0.7
same,relative viability,NCI-H1666; first compound 8 µM,0.626
same,relative viability,NCI-H1734; first compound 0.08 µM,0.903
same,relative viability,NCI-H1734; first compound 0.253 µM,0.958
same,relative viability,NCI-H1734; first compound 0.8 µM,0.916
same,relative viability,NCI-H1734; first compound 2.53 µM,0.993
same,relative viability,NCI-H1734; first compound 8 µM,0.844
same,relative viability,NCI-H1755; first compound 0.08 µM,0.881
same,relative viability,NCI-H1755; first compound 0.253 µM,0.91
same,relative viability,NCI-H1755; first compound 0.8 µM,0.844
same,relative viability,NCI-H1755; first compound 2.53 µM,0.937
same,relative viability,NCI-H1755; first compound 8 µM,0.674
same,relative viability,NCI-H2009; first compound 0.08 µM,0.999
same,relative viability,NCI-H2009; first compound 0.253 µM,0.999
same,relative viability,NCI-H2009; first compound 0.8 µM,0.879
same,relative viability,NCI-H2009; first compound 2.53 µM,0.888
same,relative viability,NCI-H2009; first compound 8 µM,0.769
same,relative viability,NCI-H2228; first compound 0.08 µM,1.11
same,relative viability,NCI-H2228; first compound 0.253 µM,0.858
same,relative viability,NCI-H2228; first compound 0.8 µM,0.904
same,relative viability,NCI-H2228; first compound 2.53 µM,0.728
same,relative viability,NCI-H2228; first compound 8 µM,0.559
same,relative viability,NCI-H2347; first compound 0.08 µM,1
same,relative viability,NCI-H2347; first compound 0.253 µM,0.858
same,relative viability,NCI-H2347; first compound 0.8 µM,0.748
same,relative viability,NCI-H2347; first compound 2.53 µM,0.955
same,relative viability,NCI-H2347; first compound 8 µM,0.883
same,relative viability,NCI-H2405; first compound 0.08 µM,0.761
same,relative viability,NCI-H2405; first compound 0.253 µM,0.979
same,relative viability,NCI-H2405; first compound 0.8 µM,0.979
same,relative viability,NCI-H2405; first compound 2.53 µM,0.896
same,relative viability,NCI-H2405; first compound 8 µM,0.984
same,relative viability,NCI-H520; first compound 0.08 µM,0.386
same,relative viability,NCI-H520; first compound 0.253 µM,0.538
same,relative viability,NCI-H520; first compound 0.8 µM,0.556
same,relative viability,NCI-H520; first compound 2.53 µM,0.437
same,relative viability,NCI-H520; first compound 8 µM,0.649
same,relative viability,NCI-H727; first compound 0.08 µM,0.729
same,relative viability,NCI-H727; first compound 0.253 µM,0.788
same,relative viability,NCI-H727; first compound 0.8 µM,0.884
same,relative viability,NCI-H727; first compound 2.53 µM,0.733
same,relative viability,NCI-H727; first compound 8 µM,0.868
same,relative viability,NCI-H838; first compound 0.08 µM,0.786
same,relative viability,NCI-H838; first compound 0.253 µM,0.737
same,relative viability,NCI-H838; first compound 0.8 µM,0.786
same,relative viability,NCI-H838; first compound 2.53 µM,0.745
same,relative viability,NCI-H838; first compound 8 µM,0.684
same,relative viability,SW 1573; first compound 0.08 µM,1.09
same,relative viability,SW 1573; first compound 0.253 µM,1.02
same,relative viability,SW 1573; first compound 0.8 µM,0.898
same,relative viability,SW 1573; first compound 2.53 µM,0.894
same,relative viability,SW 1573; first compound 8 µM,0.963
same,relative viability,UMC-11; first compound 0.08 µM,0.716
same,relative viability,UMC-11; first compound 0.253 µM,0.802
same,relative viability,UMC-11; first compound 0.8 µM,0.686
same,relative viability,UMC-11; first compound 2.53 µM,0.772
same,relative viability,UMC-11; first compound 8 µM,0.52
